Measurements taken from ChEMBL document CHEMBL1133739, “Fenchylamine sulfonamide inhibitors of amyloid beta peptide production by the gamma-secretase proteolytic pathway: potential small-molecule therapeutic agents for the treatment of Alzheimer's disease” (J Med Chem, 2000).

How the values were obtained:
[1] = target: Amyloid-beta precursor protein (Homo sapiens) (UniProt P05067); test: Observed stimulation of the production of soluble beta-amyloid precursor protein; format: functional
[2] = target: Amyloid-beta precursor protein (Homo sapiens) (UniProt P05067); test: Inhibition of A-beta-42 production by inhibiting Gamma-secretase proteolytic pathway in HEK293 cell stably transfected with a double mutant form of human APP(K595N/M596L), at 2.5 uM concentration; format: cell-based

Chain of Amyloid-beta precursor protein (Homo sapiens) (P05067 whole entry): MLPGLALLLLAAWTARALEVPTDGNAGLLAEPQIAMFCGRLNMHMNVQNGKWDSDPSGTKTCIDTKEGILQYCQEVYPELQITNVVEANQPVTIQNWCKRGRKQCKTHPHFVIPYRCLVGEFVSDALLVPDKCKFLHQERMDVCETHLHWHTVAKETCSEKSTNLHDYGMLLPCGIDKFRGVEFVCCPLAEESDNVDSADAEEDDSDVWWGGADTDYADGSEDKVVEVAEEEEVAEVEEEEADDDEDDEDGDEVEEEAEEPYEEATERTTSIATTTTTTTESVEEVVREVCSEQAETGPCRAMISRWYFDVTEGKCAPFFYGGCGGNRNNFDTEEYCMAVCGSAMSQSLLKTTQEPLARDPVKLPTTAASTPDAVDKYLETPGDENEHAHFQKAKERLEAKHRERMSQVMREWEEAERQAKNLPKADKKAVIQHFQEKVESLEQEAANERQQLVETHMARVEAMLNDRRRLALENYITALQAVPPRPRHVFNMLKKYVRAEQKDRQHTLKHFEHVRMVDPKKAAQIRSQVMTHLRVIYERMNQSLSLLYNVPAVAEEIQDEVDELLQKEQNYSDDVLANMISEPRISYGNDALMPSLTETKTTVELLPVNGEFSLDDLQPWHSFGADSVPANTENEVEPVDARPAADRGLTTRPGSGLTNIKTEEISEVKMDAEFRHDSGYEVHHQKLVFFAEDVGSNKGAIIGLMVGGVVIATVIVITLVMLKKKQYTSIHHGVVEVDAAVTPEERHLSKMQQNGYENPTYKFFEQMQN

| SMILES | Stimulation [1] | inhibition [2] |
| --- | --- | --- |
| CC12CCC(C1)C(C)(C)C2NS(=O)(=O)c1ccc(F)cc1 (stereo not drawn) | 20% | 31% |
| CC12CC[C@@H](C1)C(C)(C)[C@@H]2NS(=O)(=O)c1ccc(Br)cc1 | 0% | 24% |
| CC12CC[C@@H](C1)C(C)(C)[C@@H]2NS(=O)(=O)c1ccc(Cl)cc1 | 0% | 26% |
| CC12CC[C@@H](C1)C(C)(C)[C@@H]2NS(=O)(=O)c1cccs1 | 32% | 47% |

More lines, now with the values ahead:

| Stimulation [1] | inhibition [2] | SMILES |
| --- | --- | --- |
| – | 19% | CC1(C)[C@H]2CC[C@](C)(C2)[C@H]1NS(=O)(=O)c1ccc(F)cc1 |
| – | 0% | CC12CC[C@@H](C1)C(C)(C)[C@H]2NS(=O)(=O)c1ccc(F)cc1 |
| – | 0% | CC1(C)[C@@H]2CC[C@@](C)(C2)[C@H]1NS(=O)(=O)c1ccc(F)cc1 |
| 23% | 58% | CC12CC[C@@H](C1)C(C)(C)[C@@H]2NS(=O)(=O)c1ccc(F)cc1 (single isomer, unassigned; (+)) |
